The values below come from publication PMC4024383 (European journal of medicinal chemistry, 2014).

Data set [1] has as its system Src kinase. Description: Src radioactive kinase assay. As to conditions: ratio of IC50s.
The target in data set [2] is recombinant PfCDPK4 (Plasmodium falciparum, UniProt Q8IBS5). The data set is described as follows: PfCDPK4 luminescence-based. Type of data set: biochemical. Particulars: for fold more potent against PfCDPK4 than PfCDPK1: ratio of IC50s.
For data set [3], the target named is T1, Abl tyrosine kinase (Homo sapiens, UniProt P00519).
T1 sequence (P00519 229-512 limits assumed): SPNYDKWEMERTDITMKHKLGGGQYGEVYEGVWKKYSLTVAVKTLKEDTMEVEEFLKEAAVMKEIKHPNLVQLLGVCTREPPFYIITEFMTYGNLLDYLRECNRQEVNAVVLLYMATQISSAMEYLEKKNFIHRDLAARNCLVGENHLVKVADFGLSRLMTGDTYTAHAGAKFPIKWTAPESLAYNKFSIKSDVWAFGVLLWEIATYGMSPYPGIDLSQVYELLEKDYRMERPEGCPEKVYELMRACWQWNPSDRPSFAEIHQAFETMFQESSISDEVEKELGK
Description: Abl radioactive kinase assay. The class given is biochemical.

Data set [4] concerns P. falciparum gametocyte exflagellation. The data set is described as follows: P. falciparum exflagellation assay. Type of data set: cell-based. As to conditions: Plasmodium falciparum, read-out: P. falciparum exflagellation inhibition EC50.
Data set [5] can be described thus: Human cell growth inhibition assay. The class given is cell-based. Particulars: HepG2 cells (liver).
Data set [6] in a line: Human cell growth inhibition assay. Type of data set: cell-based. Particulars: CRL-8155 cells (lymphocytic).
The test system of data set [7] is PfCDPK1. Description: PfCDPK1 enzymatic assay. Particulars: ratio of IC50s. The class given is biochemical, Plasmodium falciparum.

Each structure is given as a SMILES string. Some results are limits rather than exact numbers.

recombinant PfCDPK4, sequence (Q8IBS5 whole entry): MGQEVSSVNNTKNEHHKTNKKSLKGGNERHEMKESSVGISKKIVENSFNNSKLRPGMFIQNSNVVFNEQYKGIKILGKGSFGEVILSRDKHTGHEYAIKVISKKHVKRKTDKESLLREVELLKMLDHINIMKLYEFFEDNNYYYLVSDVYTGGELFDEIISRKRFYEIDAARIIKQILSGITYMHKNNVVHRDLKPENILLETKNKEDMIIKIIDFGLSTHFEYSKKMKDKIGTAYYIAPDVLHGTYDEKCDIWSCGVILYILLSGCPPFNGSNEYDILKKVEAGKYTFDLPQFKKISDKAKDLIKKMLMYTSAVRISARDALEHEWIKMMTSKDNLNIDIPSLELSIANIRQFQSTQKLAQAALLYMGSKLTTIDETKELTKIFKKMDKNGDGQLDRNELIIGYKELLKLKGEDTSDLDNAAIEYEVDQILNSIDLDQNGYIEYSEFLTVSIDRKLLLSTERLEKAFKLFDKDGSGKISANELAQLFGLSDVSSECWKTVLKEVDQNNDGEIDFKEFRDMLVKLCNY

For `CCOc1ccc2cc(-c3nn(CC4CNC4)c4ncnc(N)c34)ccc2c1` [17g, 1-(azetidin-3-ylmethyl)-3-(6-ethoxynaphthalen-2-yl)-1H-pyrazolo[3,4-d]pyrimidin-4-amine], the “selectivity for PfCDPK4 over Src” value in data set [1] is reported as “greater than 1300 fold”.

`CCOc1ccc2cc(-c3nn(CC(C)C)c4ncnc(N)c34)ccc2c1` [17q, 3-(6-ethoxynaphthalen-2-yl)-1-isobutyl-1H-pyrazolo[3,4-d]pyrimidin-4-amine]: the figures for the IC50 in data set [2] and in data set [3] were 0.014 µM and 2.7 µM, respectively. In data set [2] (relative to 17a), the “fold more potent against PfCDPK4 than i-Pr analog 17a” value is listed as “more than 30 fold”. In addition, the EC50 in data set [4] is less than 0.04 µM. Also, the GI50 in data set [5] and in data set [6] was more than 30 µM throughout.

In the case of `CCOc1ccc2cc(-c3nn(C(C)C)c4ncnc(N)c34)ccc2n1` [30a, 3-(2-ethoxyquinolin-6-yl)-1-isopropyl-1H-pyrazolo[3,4-d]pyrimidin-4-amine], in data set [2], the IC50 was less than 0.02 µM and the “fold more potent against PfCDPK4 than PfCDPK1” value was more than 5 fold.

For the compound `CCOc1ccc2cc(-c3nn(CC(C)(C)CO)c4ncnc(N)c34)ccc2n1` [30u, 3-(4-amino-3-(2-ethoxyquinolin-6-yl)-1H-pyrazolo[3,4-d]pyrimidin-1-yl)-2,2-dimethylpropan-1-ol], the values for the IC50 in data set [2] and in data set [3] were 0.004 µM and more than 10 µM, respectively. For the same compound, in data set [4], the EC50 was less than 0.04 µM. Also, the GI50 in data set [5] and in data set [6] was more than 30 µM each time.

Turning to `CCOc1ccc2cc(-c3nn(C(C)C)c4ncnc(N)c34)cc(C)c2n1` [31a, 3-(2-ethoxy-8-methylquinolin-6-yl)-1-isopropyl-1H-pyrazolo[3,4-d]pyrimidin-4-amine], the “fold more potent against PfCDPK4 than PfCDPK1” value in data set [2] is more than 5 fold.

`CC(C)n1nc(-c2ccc3nc(OCc4ccccc4)ccc3c2)c2c(N)ncnc21` [33a, 3-(2-(benzyloxy)quinolin-6-yl)-1-isopropyl-1H-pyrazolo[3,4-d]pyrimidin-4-amine]: the “fold more potent against PfCDPK1 than PfCDPK4” value in data set [7] is recorded as more than 3 fold.

In the case of `Nc1ncnc2c1c(-c1ccc3cc(OC4CC4)ccc3c1)nn2CC1CCNCC1` [37j, 3-(6-cyclopropoxynaphthalen-2-yl)-1-(piperidin-4-ylmethyl)-1H-pyrazolo[3,4-d]pyrimidin-4-amine], the IC50 in data set [2] is 0.002 µM. Also, in data set [4], the EC50 was less than 0.04 µM. Further, the GI50 in data set [5] and in data set [6] was more than 30 µM throughout.

In general, IC50 refers to the concentration at which inhibition is half-maximal. What is called EC50 is the concentration needed to bring the measured effect to its halfway point. In general, GI50 refers to the concentration giving 50% growth inhibition. Low readings indicate more potent growth inhibition, high ones less potent growth inhibition.
